Drawing on ChEMBL document CHEMBL5360539, “RSK inhibitors as potential anticancer agents: Discovery, optimization, and challenges” (Eur J Med Chem, 2023), this text covers IC50 for 14 compounds.

The structures appear in SMILES notation. Where a name gives a salt, the structure may show the parent alone.

In general, IC50 refers to the midpoint of a concentration-inhibition curve.

Experiment [1] concerns the target Ribosomal protein S6 kinase alpha-1 (Homo sapiens, UniProt Q15418). As to the kind of experiment: Inhibition of RSK1 (unknown origin).
The target of experiment [2] is Ribosomal protein S6 kinase alpha-2 (Homo sapiens, UniProt Q15349). The experiment is described as follows: Inhibition of RSK3 (unknown origin).
Ribosomal protein S6 kinase alpha-2, sequence (Q15349 whole entry): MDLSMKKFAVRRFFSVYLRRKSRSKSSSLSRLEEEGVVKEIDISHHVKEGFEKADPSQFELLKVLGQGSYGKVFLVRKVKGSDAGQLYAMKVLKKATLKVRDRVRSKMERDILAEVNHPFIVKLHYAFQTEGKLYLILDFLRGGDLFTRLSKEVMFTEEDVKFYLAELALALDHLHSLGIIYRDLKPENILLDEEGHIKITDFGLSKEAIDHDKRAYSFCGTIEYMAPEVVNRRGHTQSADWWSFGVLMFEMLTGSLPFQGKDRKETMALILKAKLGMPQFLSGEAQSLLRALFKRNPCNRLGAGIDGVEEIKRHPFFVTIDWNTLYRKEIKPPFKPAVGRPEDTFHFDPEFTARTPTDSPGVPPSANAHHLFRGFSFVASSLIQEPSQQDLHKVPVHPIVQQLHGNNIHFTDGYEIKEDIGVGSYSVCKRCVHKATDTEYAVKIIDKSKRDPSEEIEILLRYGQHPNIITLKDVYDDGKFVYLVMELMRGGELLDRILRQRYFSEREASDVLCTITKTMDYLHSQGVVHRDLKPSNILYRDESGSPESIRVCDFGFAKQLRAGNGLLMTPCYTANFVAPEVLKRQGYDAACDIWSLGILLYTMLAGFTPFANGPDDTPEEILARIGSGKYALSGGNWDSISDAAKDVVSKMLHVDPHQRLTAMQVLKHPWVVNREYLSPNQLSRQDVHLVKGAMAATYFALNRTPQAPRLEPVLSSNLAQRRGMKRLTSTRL
Experiment [3] addresses T1, Ribosomal protein S6 kinase alpha-3 (Homo sapiens, UniProt P51812). As to the kind of experiment: Inhibition of RSK2 (unknown origin).
In experiment [4] the target is T1, Ribosomal protein S6 kinase alpha-3. The experiment is described as follows: Inhibition of wild type RSK2 (unknown origin).
The target is the same in experiment [5]. As to the kind of experiment: Inhibition of recombinant His-tagged RSK2 (unknown origin) expressed in Sf9 cells.
Experiment [6] deals with Ribosomal protein S6 kinase alpha-6 (Homo sapiens, UniProt Q9UK32). The experiment is described as follows: Inhibition of RSK4 (unknown origin).
Ribosomal protein S6 kinase alpha-6, sequence (Q9UK32 whole entry): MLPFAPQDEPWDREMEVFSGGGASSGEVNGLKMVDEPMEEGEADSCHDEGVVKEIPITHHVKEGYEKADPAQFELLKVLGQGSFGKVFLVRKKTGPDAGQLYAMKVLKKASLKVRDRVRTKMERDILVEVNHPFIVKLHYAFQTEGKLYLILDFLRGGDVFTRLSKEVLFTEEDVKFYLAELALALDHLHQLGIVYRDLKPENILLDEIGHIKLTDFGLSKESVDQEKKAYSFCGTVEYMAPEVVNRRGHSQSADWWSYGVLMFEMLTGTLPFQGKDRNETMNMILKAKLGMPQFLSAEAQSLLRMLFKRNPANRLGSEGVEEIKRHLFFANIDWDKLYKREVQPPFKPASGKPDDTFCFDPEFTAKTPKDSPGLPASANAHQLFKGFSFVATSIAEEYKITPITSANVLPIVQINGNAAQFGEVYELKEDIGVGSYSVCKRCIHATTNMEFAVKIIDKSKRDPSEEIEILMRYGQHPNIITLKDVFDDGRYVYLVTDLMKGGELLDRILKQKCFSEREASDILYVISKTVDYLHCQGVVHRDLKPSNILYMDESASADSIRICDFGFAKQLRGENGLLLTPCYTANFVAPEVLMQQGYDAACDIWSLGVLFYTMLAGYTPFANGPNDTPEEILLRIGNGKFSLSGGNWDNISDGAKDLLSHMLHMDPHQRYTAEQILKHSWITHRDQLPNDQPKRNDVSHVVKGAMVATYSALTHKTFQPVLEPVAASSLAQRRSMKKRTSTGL
Experiment [7] in a line: Inhibition of recombinant N-terminal RSK (unknown origin) expressed in Sf21 cells. More on the design: species or system Homo sapiens.
The target of experiment [8] is T1, Ribosomal protein S6 kinase alpha-3. The experiment is described as follows: Inhibition of human recombinant RSK2.
Experiment [9] shares this target. As to the kind of experiment: Inhibition of RSK2 expressed in human MCF7 cells incubated for 1 hrs by. In kind it is cell-based.

T1 sequence (P51812 whole entry): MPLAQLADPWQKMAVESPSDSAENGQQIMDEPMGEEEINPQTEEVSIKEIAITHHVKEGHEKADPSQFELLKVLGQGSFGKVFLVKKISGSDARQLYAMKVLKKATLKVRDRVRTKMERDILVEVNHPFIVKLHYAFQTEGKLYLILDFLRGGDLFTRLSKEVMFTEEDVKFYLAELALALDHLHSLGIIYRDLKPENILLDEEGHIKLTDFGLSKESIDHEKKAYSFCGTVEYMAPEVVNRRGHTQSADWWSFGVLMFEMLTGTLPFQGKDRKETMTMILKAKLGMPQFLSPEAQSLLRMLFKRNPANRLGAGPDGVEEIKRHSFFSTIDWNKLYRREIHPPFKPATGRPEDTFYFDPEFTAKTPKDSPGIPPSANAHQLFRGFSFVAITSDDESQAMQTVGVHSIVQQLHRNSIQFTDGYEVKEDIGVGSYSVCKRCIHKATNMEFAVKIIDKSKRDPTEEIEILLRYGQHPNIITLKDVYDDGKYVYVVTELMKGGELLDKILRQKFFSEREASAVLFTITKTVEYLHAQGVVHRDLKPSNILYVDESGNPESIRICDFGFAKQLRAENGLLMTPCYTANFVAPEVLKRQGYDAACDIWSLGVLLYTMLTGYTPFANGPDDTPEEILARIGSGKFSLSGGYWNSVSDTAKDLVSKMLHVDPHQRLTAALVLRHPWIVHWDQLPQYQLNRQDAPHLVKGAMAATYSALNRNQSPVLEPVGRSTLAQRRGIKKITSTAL
Ribosomal protein S6 kinase alpha-1, sequence (Q15418 whole entry): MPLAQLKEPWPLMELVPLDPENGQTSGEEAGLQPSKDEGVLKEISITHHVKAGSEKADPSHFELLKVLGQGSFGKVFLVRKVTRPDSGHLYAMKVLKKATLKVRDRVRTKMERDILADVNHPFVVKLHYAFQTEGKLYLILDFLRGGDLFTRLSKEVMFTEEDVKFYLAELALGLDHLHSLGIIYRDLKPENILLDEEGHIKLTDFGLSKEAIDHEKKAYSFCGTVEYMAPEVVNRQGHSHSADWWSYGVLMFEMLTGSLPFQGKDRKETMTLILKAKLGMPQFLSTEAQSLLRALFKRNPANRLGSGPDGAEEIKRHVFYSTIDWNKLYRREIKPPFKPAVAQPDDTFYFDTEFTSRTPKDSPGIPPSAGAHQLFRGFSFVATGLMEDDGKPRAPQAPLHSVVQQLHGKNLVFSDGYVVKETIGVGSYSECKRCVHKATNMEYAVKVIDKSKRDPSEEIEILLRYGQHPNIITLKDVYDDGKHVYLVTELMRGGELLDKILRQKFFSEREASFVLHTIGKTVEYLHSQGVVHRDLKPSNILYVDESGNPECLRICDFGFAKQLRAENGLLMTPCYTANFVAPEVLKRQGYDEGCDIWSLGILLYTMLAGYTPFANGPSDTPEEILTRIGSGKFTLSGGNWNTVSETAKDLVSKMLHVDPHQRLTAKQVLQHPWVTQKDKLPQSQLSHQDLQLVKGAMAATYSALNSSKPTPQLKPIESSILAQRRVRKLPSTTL

With `O=C1Nc2ccccc2/C1=C1/Nc2ccccc2/C1=N\O`, 0.1 µM corresponded to half-maximal inhibition in experiment [1] (IC50).

In [1], `CC(=O)O[C@@H]1[C@@H](OC(C)=O)[C@@H](O)[C@H](Oc2c(-c3ccc(O)cc3)oc3cc(O)cc(O)c3c2=O)O[C@H]1C` came in with a 50% inhibitory concentration (IC50) of 0.089 µM.

In the case of `O=C1c2ccccc2-c2c(NCCc3ccccc3)c(=O)[nH]c3cccc1c23`, the results for the IC50 in experiment [1], in experiment [2] and in experiment [3] were 1.5 µM, 1.2 µM and 2.4 µM, respectively.

In the case of `Cc1ccc(-c2c(C(=O)CCl)n(CCCO)c3ncnc(N)c23)cc1`, in experiment [4], the IC50 turned out to be 0.015 µM.

Consider `CCCNC(=O)O[C@H]1[C@H](CCC)C[C@@H](Oc2c(-c3ccc(O)cc3)oc3cc(O)cc(O)c3c2=O)[C@H](O)[C@@H]1OC(=O)NCCC`, for which, in experiment [5], the IC50 was determined as 0.87 µM.

`CCCNC(=O)O[C@@H]1[C@@H](OC(C)=O)[C@@H](O)[C@H](Oc2c(-c3ccc(O)cc3)oc3cc(O)cc(O)c3c2=O)O[C@H]1CCC`: the IC50 in experiment [6] came out at 6.2 µM.

On to `CCC[C@@H]1C[C@@H](Oc2c(-c3ccc(O)cc3)oc3cc(O)cc(O)c3c2=O)[C@H](O)[C@H](OC(C)=O)[C@H]1OC(C)=O`, for which the half-maximal inhibitory concentration (IC50) in experiment [5] worked out at 0.87 µM.

Take `CC(C)CCN1c2nc(Nc3cc(F)c(O)c(F)c3)ncc2N(C)C(=O)C1C` (stereo unspecified): the IC50 in experiment [7] turned out to be 0.01 µM.

In turn, `Cn1cc(C2=C(c3cn(CCCSC(=N)N)c4ccccc34)C(=O)NC2=O)c2ccccc21` [BISINDOLYLMALEIMIDE IX] had an IC50 in experiment [1] of 0.2 µM.

On to `COC(=O)/C=C/C(=O)OC` [DIMETHYL FUMARATE], for which the IC50 in experiment [8] was determined as 225 µM.

Compound `O=C1C[C@@H](c2ccc(O)c(O)c2)Oc2cc(O)cc(O)c21` [ERIODICTYOL] showed an IC50 in experiment [9] of 4.77 µM.

`CN(C)CCCn1cc(C2=C(c3c[nH]c4ccccc34)C(=O)NC2=O)c2ccccc21` [GF-109203] returned an IC50 in experiment [1] of 0.61 µM.

`CC(C)=CCC1=C(O)C(=O)c2ccccc2C1=O` [LAPACHOL] registered an IC50 in [3] of 2 µM.

In experiment [1], `Cn1cc(C2=C(c3ccc(Cl)cc3Cl)C(=O)NC2=O)c2ccccc21` [SB-216763] came in with an IC50 of 0.1 µM.
